Activity calls are given as the source filed them. The calls are words filed in the database; no cut-off is given here.
Experiments:
Format in all cases: functional, cell-based
[1] = Antiproliferative activity against human NHLF cells assessed as inhibition of lysophosphatidic acid-induced proliferation by BrdU incorporation assay
[2] = molecular target: T1, Lysophosphatidic acid receptor 3 (Homo sapiens) (UniProt Q9UBY5); experiment: Antagonist activity at human LPA3R expressed in Chem-1 cells assessed as inhibition of lysophosphatidic acid-induced calcium mobilization at 30 uM by FLIPR assay
T1 sequence (whole entry): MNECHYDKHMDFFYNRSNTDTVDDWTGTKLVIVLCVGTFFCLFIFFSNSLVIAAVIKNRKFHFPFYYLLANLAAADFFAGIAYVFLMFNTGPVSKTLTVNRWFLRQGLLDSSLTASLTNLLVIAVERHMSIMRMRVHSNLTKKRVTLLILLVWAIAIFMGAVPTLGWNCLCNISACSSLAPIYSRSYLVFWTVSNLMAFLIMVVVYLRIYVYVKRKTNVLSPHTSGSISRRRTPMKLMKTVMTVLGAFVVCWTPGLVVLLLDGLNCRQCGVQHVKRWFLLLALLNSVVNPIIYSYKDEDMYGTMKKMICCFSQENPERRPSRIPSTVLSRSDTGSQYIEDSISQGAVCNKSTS

[3] = molecular target: Lysophosphatidic acid receptor 1 (Homo sapiens) (UniProt Q92633); experiment: Antagonist activity at human LPA1R expressed in Chem-1 cells assessed as inhibition of lysophosphatidic acid-induced calcium mobilization at 30 uM by FLIPR assay
[4] = molecular target: T1, Lysophosphatidic acid receptor 3 (Homo sapiens); experiment: Antagonist activity at human LPA3R expressed in Chem-1 cells assessed as inhibition of lysophosphatidic acid-induced calcium mobilization by FLIPR assay

Chain of Lysophosphatidic acid receptor 1 (Homo sapiens) (Q92633 whole entry): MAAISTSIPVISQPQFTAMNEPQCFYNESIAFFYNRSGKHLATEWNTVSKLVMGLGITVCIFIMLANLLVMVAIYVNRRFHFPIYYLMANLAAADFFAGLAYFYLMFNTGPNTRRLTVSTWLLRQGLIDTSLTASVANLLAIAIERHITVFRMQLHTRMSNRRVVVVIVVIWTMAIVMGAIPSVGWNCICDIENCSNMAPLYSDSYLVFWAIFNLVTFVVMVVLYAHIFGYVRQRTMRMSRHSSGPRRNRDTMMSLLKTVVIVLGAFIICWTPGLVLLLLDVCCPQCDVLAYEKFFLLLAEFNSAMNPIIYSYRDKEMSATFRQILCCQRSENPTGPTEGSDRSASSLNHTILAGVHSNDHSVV

Q: Which results are given for `COc1ccc(C(=O)/C(=N\C2CCCC2)n2ncc(C#N)c2N)c(F)c1`?
A: IC50 [1]: 104 nM; inhibition [2]: 4%; inhibition [3]: 100%

Q: For `COc1ccc(-c2[nH]c3c(C#N)cnn3c2NC2CCCC2)c(OC)c1`, which inhibition [4] is on record?
A: inactive

Q: With `COc1cc(OCc2ccccc2)ccc1C(=O)/C(=N\C1CCCC1)n1ncc(C#N)c1N` as the molecule, how does the inhibition [2] read?
A: 23%

Q: And the inhibition [3]?
A: 48%

Q: For `COc1cc2ccccc2cc1C(=O)/C(=N\C1CCCC1)n1ncc(C#N)c1N`, which IC50 [1] is on record?
A: 184 nM

Q: And the inhibition [2]?
A: 2%

Q: What about the inhibition [3] of the same molecule?
A: 78%

Q: For `CCc1ccc(C(=O)/C(=N\C2CCCC2)n2ncc(C#N)c2N)cc1`, which IC50 [1] is on record?
A: 533 nM

Q: What about the inhibition [2] of the same molecule?
A: 14%

Q: And the inhibition [3]?
A: 100%

Q: Which inhibition [2] does the source give for `COc1cc(F)ccc1C(=O)/C(=N\C1CCCC1)n1ncc(C#N)c1N` here?
A: 3%

Q: And the inhibition [3]?
A: 49%

Q: For `COc1cc(C(=O)/C(=N\C2CCCC2)n2ncc(C#N)c2N)cc(OC)c1OC`, which inhibition [2] is on record?
A: 14%

Q: And the inhibition [3]?
A: 13%

Q: What does the source list for `COc1cc2c(cc1C(=O)/C(=N\C1CCCC1)n1ncc(C#N)c1N)CCC2`?
A: inhibition [2]: 19%; inhibition [3]: 78%

Q: What does the source list for `COc1cc(OC)c(C(=O)/C(=N\C2CCCC2)n2ncc(C#N)c2N)cc1OC`?
A: inhibition [2]: 8%; inhibition [3]: 79%

Q: What does the source list for `COc1ccc(C(=O)/C(=N\C2CCCCC2)n2ncc(C#N)c2N)c(OC)c1`?
A: IC50 [1]: 3870 nM; inhibition [2]: 30%; inhibition [3]: 85%

Q: Which IC50 [1] does the source give for `COc1ccc(C(=O)/C(=N\C(C)C)n2ncc(C#N)c2N)c(OC)c1` here?
A: 27 nM

Q: And the inhibition [2]?
A: 25%

Q: What about the inhibition [3] of the same molecule?
A: 88%

Q: Which inhibition [2] does the source give for `N#Cc1cnn(/C(=N/C2CCCC2)C(=O)c2ccc(Br)cc2)c1N` here?
A: 1%

Q: What about the inhibition [3] of the same molecule?
A: 96%

Q: Which results are given for `COc1ccc(C(=O)/C(=N\C2CCCC2)n2ncc(C#N)c2N)c(OC)c1`?
A: IC50 [1]: 29 nM; inhibition [2]: 23%; inhibition [3]: 98%

Source: ChEMBL document CHEMBL3351480, “Discovery of novel non-carboxylic acid 5-amino-4-cyanopyrazole derivatives as potent and highly selective LPA1R antagonists” (Bioorg Med Chem Lett, 2014)
